Source: PubChem BioAssay AID330 (DTP/NCI, 2004)
Several values for one entry are separate records, joined by “and”; a condition that tells them apart may be missing. Equal entries are not always repeated. Toxic doses and inconclusive results are not listed. How the source made its calls: active means survival T/C of 150% or more; inactive means T/C below 125% in these data.

System: P388 leukemia ip, CD2F1 mice, survival T/C
Experiment: NCI In Vivo Anticancer Drug Screen. Data for tumor model P388 Leukemia (intraperitoneal) in CD2F1 (CDF1) mice
Settings: endpoint: median survival time, higher = longer survival
Procedure, shortened: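 Mice carrying the transplanted tumor received test compound or vehicle. Survival was recorded in each group, and the value is the treated-group measurement divided by that of the vehicle-treated control group.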

[1] = dose: 60.0 mg/kg/injection, schedule: Q01DX005 (ip), vehicle: saline with Tween-80
[2] = dose: 120.0 mg/kg/injection, schedule: Q01DX005 (ip), vehicle: saline with Tween-80
[3] = dose: 240.0 mg/kg/injection, schedule: Q01DX005 (ip), vehicle: saline with Tween-80
[4] = dose: 6.25 mg/kg/injection, schedule: Q01DX005 (ip), vehicle: Klucel (hydroxypropylcellulose) (HPC)
[5] = dose: 12.5 mg/kg/injection, schedule: Q01DX005 (ip), vehicle: Klucel (hydroxypropylcellulose) (HPC)
[6] = dose: 50.0 mg/kg/injection, schedule: Q01DX009 (ip), vehicle: saline with Tween-80
[7] = dose: 100.0 mg/kg/injection, schedule: Q01DX009 (ip), vehicle: saline with Tween-80
[8] = dose: 50.0 mg/kg/injection, schedule: Q01DX005 (ip), vehicle: Klucel (hydroxypropylcellulose) (HPC)
[9] = dose: 100.0 mg/kg/injection, schedule: Q01DX005 (ip), vehicle: Klucel (hydroxypropylcellulose) (HPC)
[10] = dose: 200.0 mg/kg/injection, schedule: Q01DX005 (ip), vehicle: Klucel (hydroxypropylcellulose) (HPC)
[11] = dose: 12.5 mg/kg/injection, schedule: Q01DX009 (ip), vehicle: saline with Tween-80
[12] = dose: 25.0 mg/kg/injection, schedule: Q01DX009 (ip), vehicle: saline with Tween-80
[13] = dose: 50.0 mg/kg/injection, schedule: Q01DX005 (ip), vehicle: saline
[14] = dose: 100.0 mg/kg/injection, schedule: Q01DX005 (ip), vehicle: saline
[15] = dose: 25.0 mg/kg/injection, schedule: Q01DX005 (ip), vehicle: saline
[16] = dose: 6.25 mg/kg/injection, schedule: Q01DX009 (ip), vehicle: saline
[17] = dose: 12.5 mg/kg/injection, schedule: Q01DX009 (ip), vehicle: saline
[18] = dose: 25.0 mg/kg/injection, schedule: Q01DX009 (ip), vehicle: saline

Measured: T/C

COc1ccc(NC(=O)N2CC3CCN2CC3)cc1
inactive: [1] 99 % of control | [2] 93 % of control | [3] 90 % of control

CCCCN(CCCC)C(=N)/C=C/c1ccccc1
inactive: [4] 97 % of control | [5] 103 % of control

NC(=O)c1ccc(NC(=O)/C=C/C(=O)Nc2ccc(C(N)=O)cn2)nc1
inactive: dose: 1.65 mg/kg/injection, schedule: Q01DX009 (ip), vehicle: saline with Tween-80 109 % of control | dose: 2.5 mg/kg/injection, schedule: Q01DX009 (ip), vehicle: saline with Tween-80 118 % of control | dose: 2.5 mg/kg/injection, schedule: Q04DX003 (ip), vehicle: saline with Tween-80 100 % of control | dose: 3.75 mg/kg/injection, schedule: Q01DX009 (ip), vehicle: saline with Tween-80 104 % of control | dose: 5.0 mg/kg/injection, schedule: Q04DX003 (ip), vehicle: saline with Tween-80 100 % of control | dose: 10.0 mg/kg/injection, schedule: Q04DX003 (ip), vehicle: saline with Tween-80 100 % of control and 118 % of control | dose: 20.0 mg/kg/injection, schedule: Q04DX003 (ip), vehicle: saline with Tween-80 100 % of control | dose: 625.0 micrograms/kg/injection, schedule: Q01DX009 (ip), vehicle: saline with Tween-80 104 % of control | dose: 1250.0 micrograms/kg/injection, schedule: Q01DX009 (ip), vehicle: saline with Tween-80 122 % of control

O=c1c2ccccc2nc2ccc(Cl)nn12
inactive: [6] 95 % of control | [7] 100 % of control

COC(=O)C(CCCCNC(=O)OCc1ccccc1)NC(=O)C(Cc1ccccc1)NC(=O)OC(C)(C)C (stereo not given)
inactive: [8] 99 % of control | [9] 97 % of control | [10] 99 % of control

O=C(CCl)N1c2ccccc2Sc2c1ccc1ccccc21
inactive: dose: 3.12 mg/kg/injection, schedule: Q01DX009 (ip), vehicle: saline with Tween-80 103 % of control | dose: 6.25 mg/kg/injection, schedule: Q01DX009 (ip), vehicle: saline with Tween-80 104 % of control | dose: 6.25 mg/kg/injection, schedule: Q01DX009 (ip), vehicle: suspension in saline 100 % of control | [11] 120 % of control | dose: 12.5 mg/kg/injection, schedule: Q01DX009 (ip), vehicle: suspension in saline 102 % of control and 122 % of control | [12] 116 % of control | dose: 25.0 mg/kg/injection, schedule: Q01DX009 (ip), vehicle: suspension in saline 103 % of control and 118 % of control | [6] 116 % of control | dose: 50.0 mg/kg/injection, schedule: Q01DX009 (ip), vehicle: suspension in saline 103 % of control | [7] 110 % of control | dose: 100.0 mg/kg/injection, schedule: Q01DX009 (ip), vehicle: suspension in saline 102 % of control and 123 % of control | dose: 200.0 mg/kg/injection, schedule: Q01DX009 (ip), vehicle: suspension in saline 108 % of control

COc1ccc(Cl)cc1C
inactive: dose: 12.5 mg/kg/injection, schedule: Q01DX009 (ip), vehicle: distilled water + Tween-80 99 % of control | dose: 25.0 mg/kg/injection, schedule: Q01DX009 (ip), vehicle: distilled water + Tween-80 97 % of control | dose: 50.0 mg/kg/injection, schedule: Q01DX009 (ip), vehicle: distilled water + Tween-80 98 % of control | dose: 100.0 mg/kg/injection, schedule: Q01DX009 (ip), vehicle: distilled water + Tween-80 98 % of control | dose: 200.0 mg/kg/injection, schedule: Q01DX009 (ip), vehicle: distilled water + Tween-80 108 % of control | dose: 400.0 mg/kg/injection, schedule: Q01DX009 (ip), vehicle: distilled water + Tween-80 116 % of control

CCN1CCC(O)(/C=C/c2ccccc2)C(C(=O)/C=C/c2ccccc2)C1 (stereo not given)
inactive: dose: 60.0 mg/kg/injection, schedule: Q01DX005 (ip), vehicle: Klucel (hydroxypropylcellulose) (HPC) 108 % of control | dose: 120.0 mg/kg/injection, schedule: Q01DX005 (ip), vehicle: Klucel (hydroxypropylcellulose) (HPC) 111 % of control

CCc1c(O)sc2c(c1=O)C(=NCC(C)C)CC(C)(C)N2
inactive: [13] 86 % of control | [14] 94 % of control | dose: 200.0 mg/kg/injection, schedule: Q01DX005 (ip), vehicle: saline 97 % of control

COc1cc(/C=C/Cc2cc3c(cc2OCCO)OCO3)cc(OC)c1OC
inactive: [1] 94 % of control | [2] 92 % of control | [3] 101 % of control

CCCCN(CCCC)CC(C)(O)CNc1cc(OC)cc2cccnc12 (stereo not given)
inactive: [15] 101 % of control | [13] 107 % of control | [14] 98 % of control

C=CC(=NC(C)(C)C)Nc1ccccc1OC
inactive: dose: 1.56 mg/kg/injection, schedule: Q01DX009 (ip), vehicle: saline 99 % of control and 89 % of control | dose: 3.12 mg/kg/injection, schedule: Q01DX005 (ip), vehicle: Klucel (hydroxypropylcellulose) (HPC) 117 % of control | dose: 3.12 mg/kg/injection, schedule: Q01DX009 (ip), vehicle: saline 111 % of control and 86 % of control and 98 % of control | [4] 117 % of control | [16] 102 % of control and 120 % of control and 95 % of control | [5] 114 % of control

O=C(Nc1nc2ccc([N+](=O)[O-])cc2s1)C(F)(F)C(F)(F)F
inactive: [16] 112 % of control | [17] 112 % of control | [18] 106 % of control

CCOC(=O)Nc1ccc(Cl)cc1C(=O)c1ccccc1
inactive: dose: 45.0 mg/kg/injection, schedule: Q01DX009 (ip), vehicle: saline with Tween-80 102 % of control | dose: 90.0 mg/kg/injection, schedule: Q01DX009 (ip), vehicle: saline with Tween-80 100 % of control | dose: 180.0 mg/kg/injection, schedule: Q01DX009 (ip), vehicle: saline with Tween-80 96 % of control

CC1(NC(=O)C23CC4CC(CC(C4)C2)C3)CCC(C(C)(C)NC(=O)C23CC4CC(CC(C4)C2)C3)CC1 (stereo not given)
inactive: dose: 50.0 mg/kg/injection, schedule: Q01DX005 (ip), vehicle: saline with Tween-80 88 % of control | dose: 100.0 mg/kg/injection, schedule: Q01DX005 (ip), vehicle: saline with Tween-80 88 % of control | dose: 200.0 mg/kg/injection, schedule: Q01DX005 (ip), vehicle: saline with Tween-80 86 % of control

O=c1oc2ccccc2c2c1C(c1ccc3c(c1)OCO3)C=C(c1ccc3c(c1)OCO3)O2 (stereo not given)
inactive: dose: 25.0 mg/kg/injection, schedule: Q01DX009 (ip), vehicle: water 94 % of control | dose: 50.0 mg/kg/injection, schedule: Q01DX009 (ip), vehicle: water 94 % of control | dose: 100.0 mg/kg/injection, schedule: Q01DX009 (ip), vehicle: water 94 % of control | dose: 200.0 mg/kg/injection, schedule: Q01DX009 (ip), vehicle: water 92 % of control

CC(=O)Oc1ccc2c3c1CCCN3CCC2
inactive: [1] 108 % of control | [2] 101 % of control | [3] 102 % of control

COc1ccc2c(n1)c(=NCCCCCCN=c1c3ccc(Cl)cc3n(O)c3ccc(OC)nc13)c1ccc(Cl)cc1n2O
inactive: dose: 100.0 mg/kg/injection, schedule: Q04DX003 (ip), vehicle: Klucel (hydroxypropylcellulose) (HPC) 116 % of control | dose: 200.0 mg/kg/injection, schedule: Q04DX003 (ip), vehicle: Klucel (hydroxypropylcellulose) (HPC) 100 % of control

O=C1C(O)=C(O)C(=O)c2ccccc21
inactive: dose: 50.0 mg/kg/injection, schedule: Q01DX009 (ip), vehicle: Klucel (hydroxypropylcellulose) (HPC) 90 % of control

Cc1cc2nc(CC(=O)c3ccncc3)c(CC(=O)c3ccncc3)nc2cc1C
inactive: [1] 106 % of control | [2] 91 % of control | [3] 91 % of control

O=c1[nH]c(CN2CCCCC2)ccc1O
inactive: [18] 105 % of control and 109 % of control | dose: 50.0 mg/kg/injection, schedule: Q01DX009 (ip), vehicle: saline 99 % of control and 105 % of control | dose: 100.0 mg/kg/injection, schedule: Q01DX009 (ip), vehicle: saline 106 % of control and 109 % of control | dose: 200.0 mg/kg/injection, schedule: Q01DX009 (ip), vehicle: saline 117 % of control and 118 % of control

CCCCC(C)N(CCNc1cc(OC)cc2cccnc12)CC(C)C (stereo not given)
inactive: dose: 12.5 mg/kg/injection, schedule: Q01DX005 (ip), vehicle: saline 106 % of control | [15] 101 % of control | [13] 106 % of control and 97 % of control

C/C=C/C=C/C(=O)CCC1(C)OC(=O)C(C)=C1O (stereo not given)
inactive: [8] 96 % of control | [9] 113 % of control | [10] 93 % of control

CCCCCCCCCCCCCCCC[N+](C)(C)CCOC(C)=O
inactive: [11] 109 % of control | [17] 111 % of control | [12] 109 % of control | [18] 100 % of control
